From ChEMBL document CHEMBL1138444 (J Med Chem, 2009) come the findings set out here.

The nature of data set [1]: in vitro. The note with it: rat, microsomes.
Data set [2] can be described thus: in vitro. The note with it: human, microsomes.
Data set [3] is described as follows: in vivo. The settings on record: rat.
Data set [4] in a line: in vivo. The settings on record: rat. The source holds these as a separate data set.
A short description of data set [5]: in vivo. The settings on record: rat. This is another data set of the same source.
Data set [6] is filed under the species Rattus norvegicus. The settings on record: in vivo.
Data set [7] in a line: in vivo. The settings on record: rat, brain and plasma, ip.
The nature of data set [8]: in vivo. The settings on record: rat, po.
Data set [9] is filed under the species Rattus norvegicus. The experiment in a line: animal or person. The note with it: Sprague-Dawley, po, read-out: INH.
The species named for data set [10] is Mus musculus. In words: animal or person. The note with it: NSA, ip, read-out: INH.
The species named for data set [11] is Mus musculus. In words: animal or person. The note with it: NSA, ip, read-out: INH. The source holds these as a separate data set.
The next data set is described as follows: physchem. The note with it: polyethylene glycol.

By microsomal CLint is commonly meant a measure of how fast metabolising enzymes remove a compound, apart from limits set by blood flow. Higher therefore signals faster metabolism. As usually defined, the Cmax is the highest concentration seen after dosing. Broadly, the half-life is how long it takes for the measured level to halve. Usually Tmax stands for the time from dosing to the highest level. Usually clearance stands for the rate of elimination divided by the concentration. Higher therefore signals a high capacity for elimination. The term Kp denotes the ratio of the level in a tissue or fluid to that in plasma or blood. The bioavailability is dose-corrected exposure relative to a reference, in per cent. A high value points to good availability. The solubility is the concentration that dissolves in the medium under given conditions. A lower solubility goes with little dissolved substance.

On to `O=C(NCc1cccc(Cl)c1)c1ccc2c(c1)N=C(N1CCCCC1)c1ccccc1S2`, for which the results for the intrinsic clearance (microsomal CLint) in the data set “in vitro [1]” and in the data set “in vitro [2]” were 644 µL/min/mg and 265 µL/min/mg, respectively.

For `O=C(NCc1cccc(Cl)c1)c1ccc2c(c1)N=C(N1CCC(F)(F)CC1)c1ccccc1S2`, the microsomal CLint in “in vitro [1]” came to 66 µL/min/mg; in the data set “in vitro [2]” it was 40 µL/min/mg.

Take `O=C(NN1CCCCC1)c1ccc2c(c1)N=C(C1CCCCC1)c1ccccc1S2`: the results for the intrinsic metabolic clearance (microsomal CLint) in “in vitro [1]” and in the data set “in vitro [2]” were 846 µL/min/mg and 84 µL/min/mg, respectively. Moreover, in “in vivo [3]”, the Cmax turned out to be 651 nM. Further, in the data set “in vivo [4]”, the half-life is 2.1 h. For the same molecule, in the data set “in vivo [5]”, the time of peak concentration (Tmax) turned out to be 0.5 h. For the same molecule, the clearance in the data set listed under Rattus norvegicus [6] was 7.36 mL/min/kg. The molecule further registered a concentration ratio (Kp) in the data set “in vivo [7]” of 4. For the same molecule, the bioavailability in “in vivo [8]” came out at 13%.

Take `CCCCNC(=O)c1ccc2c(c1)N=C(c1ccc(Cl)cc1)c1ccccc1S2`: the intrinsic metabolic clearance (microsomal CLint) amounted to 89 µL/min/mg in “in vitro [1]” and 24 µL/min/mg in “in vitro [2]”. For the same molecule, the inhibition in vivo at 10 mg/kg in the data set filed under Rattus norvegicus [9] was determined as 69%. In “in vivo [3]”, this molecule yielded a Cmax of 677 nM. This molecule showed a half-life in the data set “in vivo [4]” of 5.8 h. In the data set listed under Mus musculus [10], the inhibition in vivo at 3 mg/kg is 82%. The inhibition in vivo at 1 mg/kg in the data set listed under Mus musculus [11] was found to be 71%. Besides, the Tmax in “in vivo [5]” stood at 6 h. The molecule also displayed a clearance in the data set listed under Rattus norvegicus [6] of 0.51 mL/min/kg. This molecule also returned a bioavailability in the data set “in vivo [8]” of 25%. For the same molecule, the solubility in “physchem” was more than 3.7 mg/mL.

`CCCCNC(=O)c1ccc2c(c1)N=C(c1ccc(Cl)c(Cl)c1)c1ccccc1S2` gave a microsomal CLint in “in vitro [1]” of 32 µL/min/mg. For the same molecule, in the data set listed under Mus musculus [10], the inhibition in vivo at 3 mg/kg was 58%. Also, the solubility in “physchem” was more than 14 mg/mL.

For `CC(C)CNC(=O)c1ccc2c(c1)N=C(c1ccc(Cl)s1)c1ccccc1S2`, in the data set filed under Rattus norvegicus [9], the inhibition in vivo at 10 mg/kg was 54%. For the same molecule, in the data set listed under Mus musculus [10], the inhibition in vivo at 3 mg/kg came to 73%.

`CCCC1=Nc2cc(C(=O)NC3CCN(C(=O)OCC)CC3)ccc2Sc2ccccc21`: the intrinsic clearance (microsomal CLint) stood at 539 µL/min/mg in “in vitro [1]” and 279 µL/min/mg in “in vitro [2]”.

Turning to `CCCCNC(=O)c1ccc2c(c1)N=C(c1ccc(F)c(Cl)c1)c1ccccc1S2`, the microsomal CLint is 58 µL/min/mg in “in vitro [1]” and 16 µL/min/mg in the data set “in vitro [2]”. The inhibition in vivo at 10 mg/kg in the data set listed under Rattus norvegicus [9] turned out to be 59%. Further, the inhibition in vivo at 3 mg/kg in the data set filed under Mus musculus [10] stood at 94%. Besides, the inhibition in vivo at 1 mg/kg in the data set filed under Mus musculus [11] came to 70%. In “physchem”, this molecule gave a solubility of more than 13 mg/mL.

In the case of `CN/C(=N\S(=O)(=O)c1ccc(Cl)cc1)N1C[C@H](c2ccccc2)C(c2ccc(Cl)cc2)=N1` (racemic) [IBIPINABANT], the inhibition in vivo at 3 mg/kg in the data set filed under Mus musculus [10] turned out to be 82%. Further, the inhibition in vivo at 1 mg/kg in the data set filed under Mus musculus [11] amounted to 51%.

On to `Cc1c(C(=O)NN2CCCCC2)nn(-c2ccc(Cl)cc2Cl)c1-c1ccc(Cl)cc1` [RIMONABANT], for which the microsomal CLint is 159 µL/min/mg in the data set “in vitro [1]” and 41 µL/min/mg in the data set “in vitro [2]”. The inhibition in vivo at 10 mg/kg in the data set filed under Rattus norvegicus [9] came to 55%. For the same molecule, the inhibition in vivo at 1 mg/kg in the data set filed under Mus musculus [11] was 70%.
